Source: US20060166937A1, “Bisphosphonates for the treatment of atherosclerosis and device comprising them” (priority 2002, published 2006)

Tests used:
[1] = tested on: patient with end stage renal failure undergoing dialysis; test: Arterial and valve calcification in a renal dialysis patient; assay type: in vivo, human; settings: 90 mg 2-hour i.v. infusion once a month for three months, one year following initial treatment
Description: The Effect of a Bisphosphonate on Arterial and Valve Calcification in a Renal Dialysis Patient A patient with end stage renal failure undergoing dialysis was diagnosed with severe osteoporosis. The patient was treated with 90 mg of pamidronate disodium administered via a 2-hour intravenous infusion once a month for a total of three months. […] This reduction in calcification was independently corraborated by three physicians who viewed the radiographic images in a blinded fashion.

[2] = Stability of zoledronic acid in human plasma; assay type: in vitro ADME; settings: 37° C. for 72 hours
[3] = tested on: rat carotid arteries, balloon injured; test: 28 day rat carotid artery balloon injury model (late neointimal lesion formation); assay type: in vivo; settings: for percent inhibition of neointimal lesion formation: 28 days post-balloon injury
Description: Inhibition of Late Neointimal Lesion Formation in the 28 Day Rat Carotid Artery Balloon Injury Model
Zoledronic acid is tested in the following rat model.
Rats are dosed orally with […]. Daily dosing starts 3 days prior to surgery and continues for 31 days. Rat carotid arteries are balloon injured using a method described by Clowes et al. Lab. Invest. 1983; 49; 208-215. Following sacrifice at 28 days post-balloon injury, carotid arteries are removed and processed for histologic and morphometric evaluation.

LDLr−/− mice = test: Mouse model of progression of advanced atherosclerosis with vulnerable plaques (arterial calcification, valve calcification, plaque stabilization); assay type: in vivo
Description: A mouse model of progression of advanced atherosclerosis with development of vulnerable plaques was employed. Male, 4-6 week old LDLr−/− mice were divided into treatment groups of 18-20 animals each. […] The remaining LDLr−/− animals were dosed subcutaneously once per day with either vehicle or zoledronic acid solution (10 mg/kg/day) five out of seven days a week from week from week 15 through week 18 of diet administration. From weeks 19 through 22, no treatment was administered, however mice remained on the atherosclerosis-inducing high cholesterol/cholic acid diet. Mice were sacrificed at the end of week 22 and the heart and aorta were removed. The upper portion of the heart attached to the most proximal portion of the aorta containing the aortic sinus were embedded in OCT and frozen. 10 micron-thick sections were cut through the aortic sinus using a cryostat. Twenty-eight sections per animal were stained with von Kassa and/or hematoxylin. Cross-sectional areas were analyzed by planimetry to allow determination of atherosclerotic lesion area and extent of calcification within the heart valves. The remaining aorta, from the ascending aorta to the iliac bifurcation, as well as the major branches of the aorta were fixed, parafin embedded and cross sectioned for histologic analysis. Atherosclerosis extent and lesion composition was determined for the aorta and innominate (also called brachiocephalic) arteries using approriate staining methodology including hemotoxylin and eosin staining, Verhoff von Giessen staining for elastin, Von Kassa staining for calcium, and immunohistochemical stains for inflammatory cells.

[4] = tested on: New Zealand White rabbit iliac arteries; test: Rabbit iliac stent model, restenosis at 28 days; assay type: in vivo
Description: A combined angioplasty and stenting procedure is performed in New Zealand White rabbit iliac arteries. Iliac artery balloon injury is performed by inflating a 3.0×9.0 mm angioplasty balloon in the mid-portion of the artery followed by “pull-back” of the catheter for 1 balloon length. Balloon injury is repeated 2 times, and a 3.0×12 mm stent is deployed at 6 atm for 30 seconds in the iliac artery. Balloon injury and stent placement is then performed on the contralateral iliac artery in the same manner. A post-stent deployment angiogram is performed. All animals receive oral aspirin 40 mg/day daily as anti-platelet therapy and are fed standard low-cholesterol rabbit chow. Twenty-eight days after stenting, animals are anesthetized and euthanized and the arterial tree is perfused at 100 mmHg with lactated Ringer's for several minutes, then perfused with 10% formalin at 100 mmHg for 15 minutes. The vascular section between the distal aorta and the proximal femoral arteries is excised and cleaned of periadventitial tissue. The stented section of artery is embedded in plastic and sections are taken from the proximal, middle, and distal portions of each stent. All sections are stained with hematoxylin-eosin and Movat pentachrome stains. Computerized planimetry is performed to determine the area of the internal elastic lamina (IEL), external elastic lamina (EEL) and lumen. The neointima and neointimal thickness is measured both at and between the stent struts. The vessel area is measured as the area within the EEL. Data are expressed as mean±SEM. Statistical analysis of the histologic data is accomplished using analysis of variance (ANOVA) due to the fact that two stented arteries are measured per animal with a mean generated per animal. A P<0.05 is considered statistically significant.
Zoledronic acid is administered orally by gavage at 30 mg/kg once daily from 3 days prior to stenting until day 27 post-stenting.

[5] = tested on: PDGF receptor immunocomplexes of BALB/c 3T3 cells; settings: free drug, day after day
Description: PDGF-stimulated receptor tyrosine kinase assay is performed on the last piece of each sample to determine the zoledronic acid activity. The inhibition of PDGF-stimulated receptor tyrosine kinase activity in vitro is measured in PDGF receptor immunocomplexes of BALB/c 3T3 cells, analogously to the method described by E. Andrejauskas-Buchdunger and U. Regenass in Cancer Research 52, 5353-5358 (1992).

[6] = at 22 weeks, vs baseline lesions at 15 weeks and vehicle at 22 weeks

Structure (SMILES)	arterial and valve calcification (radiographic images) [1]	stability in human plasma [2]	percent inhibition of neointimal lesion formation ([3]; 0.5 mg/kg oral gavage) [%]	percent inhibition of neointimal lesion formation ([3]; 2.0 mg/kg oral gavage) [%]	neointimal lesion formation at 28 days following balloon injury ([3]; oral, daily, dose of from 0.2 to 3.5 mg)	plaque phenotype (vulnerable or rupture-prone plaques) (LDLr−/− mice; 10 mg/kg/day s.c., four weeks, at 22 weeks, vs baseline and vehicle)	calcification of the aortic valves (LDLr−/− mice; 10 mg/kg/day s.c., vs placebo-treated animals)	progression of atherosclerosis in the aorta and innominate arteries (LDLr−/− mice; 10 mg/kg/day s.c., weeks 15-18, read at 22 weeks of high cholesterol/cholic acid diet, vs vehicle)	fibrous caps of atherosclerotic lesions (LDLr−/− mice; [6])	inflammatory cells and areas of calcification in atherosclerotic lesions (LDLr−/− mice; [6])	extent of restenotic lesion formation ([4]; 30 mg/kg oral gavage once daily, vs placebo)	EEL area compared with control (constrictive remodeling or aneurysmal-type expansion) ([4]; 30 mg/kg oral once daily)	healing of the intima in stented arterial segments ([4]; 30 mg/kg oral once daily)	reduction in average neointimal thickness ([4]; 30 mg/kg oral once daily, P<0.0001) [%]	reduction in percent arterial stenosis ([4]; 30 mg/kg oral once daily, P<0.0002) [%]	reduction in neointimal area ([4]; 30 mg/kg oral once daily, P<0.04) [%]	activity over time in the same assay [5]
NCCC(O)(P(=O)(O)O)P(=O)(O)O [pamidronate disodium, 3-amino-1-hydroxypropane-1,1-diphosphonic acid]	noticeable reduction	–	–	–	–	–	–	–	–	–	–	–	–	–	–	–	–
O=P(O)(O)C(O)(Cn1ccnc1)P(=O)(O)O [zoledronic acid, 2-(imidazol-1yl)-1-hydroxyethane-1,1-diphosphonic acid]	–	stable	17	37	significantly reduce	more stable phenotype	significantly less calcification	significantly reduced progression	thicker fibrous caps	less inflammatory cells and areas of calcification	marked reduction	did not result in differences	well healed	29	17	17	strong decrease
